According to patent US20240336574A1 (LATIGO BIOTHERAPEUTICS, INC., priority 2021, published 2024):
Read-outs that look alike come from different tables or passages of the source.

Biological target: T1, recombinant human NaV1.8 stably transfected HEK cells (Homo sapiens, UniProt Q9Y5Y9)
T1 construct: expressed in transfected cells; host or cells: HEK cells, stably transfected
Experiment: Compound profiling on NaV1.8, human NaV1.8 cell line, SyncroPatch384PE automated patch clamp assay (Example 102, first set of compounds, Table 16)
Assay type: cell-based
Conditions: human NaV1.8 HEK cells, Table 16 (first set of compounds)
Procedure: Compound Profiling on NaV1.8—Human NaV1.8 Cell Line—SyncroPatch384PE Assay
Compounds were tested on recombinant human NaV1.8 stably transfected HEK cells using the SyncroPatch384PE system, an automated patch clamp device. Cells were cultured at 37° C./5% CO2 in DMEM medium supplemented with GlutaMAX I, NEAA 1%, FBS 10% and seeded in T175 flasks. Cells were cultured at 30° C. one day prior to recording sodium currents. On the day of the recordings, cells were detached with 0.05% Trypsin-EDTA, resuspended in serum free DMEM medium and placed into the SyncroPatch384PE 6° C. pre-cooled cell hotel and shaken at 200 rpm. Intracellular solution (IC) contained, in mM: 10, CsCl; 110, CsF; 20, EGTA; 10, HEPES. Extracellular solution (EC) contained, in mM: 140, NaCl; 4, KCl; 5, Glucose; 10, HEPES; 2, CaCl2; 1, MgCl2. Washing solution contained, in mM: 40, NMDG; 100, NaCl; 4, KCl; 10, Glucose; 10, HEPES; 5, CaCl2; 1, MgCl2.
Compounds were tested in triplicate in 0.1% DMSO and 0.030% Pluronic Acid. Compounds were diluted 1:3 in EC solution to create a 10-point concentration response curve, spanning a final concentration range from 20-0.001 μM in the assay plate. Each plate contained tetracaine and another tool compound as positive controls. Up to 8 compounds were tested on one plate. 250 μM tetracaine and 0.1% DMSO were used as high and low controls, respectively. Whole cell patch clamp recordings were conducted according to Nanion's standard procedure for SyncroPatch384PE®. Cells were held at a holding potential of −120 mV. A depolarization step to 10 mV for 30 ms was applied (P1 measurement), followed by a hyperpolarization step to −100 mV for 100 ms. An inactivation step at −40 mV for 10 sec was applied before stepping to −100 mV for 20 ms, followed by a step to 10 mV for 30 ms (P2 measurement) and then back to −100 mV for 30 ms. Sweep interval was 15 sec with a sampling rate of 10 kHz. Following establishment of the whole-cell configuration in EC, two washing steps with reference buffer were performed to stabilize the baseline. Compounds were then applied by the SynchroPatch into each well and the current was recorded for five minutes in EC, followed by application of tetracaine to achieve full block at the end of the experiment. The potency of the compounds was assessed on two read-outs, resting state block (P1 measurement) or inactivated state block (P2 measurement) to obtain IC50 values. Values were normalized to high (tetracaine) and low (DMSO) controls. The IC50 values are listed in Table 16 as follows: “A” represents an IC50 less than or equal to 20 nM, “B” represents an IC50 greater than 20 nM to less than or equal to 40 nM, “C” represents an IC50 greater than 40 nM to less than or equal to 200 nM, “D” represents an IC50 greater than 200 nM to less than or equal to 500 nM.

[1] = inactivated state block (P2 measurement), read-out: P2IC50
[2] = resting state block (P1 measurement), read-out: P1IC50

T1 sequence (Q9Y5Y9 whole entry): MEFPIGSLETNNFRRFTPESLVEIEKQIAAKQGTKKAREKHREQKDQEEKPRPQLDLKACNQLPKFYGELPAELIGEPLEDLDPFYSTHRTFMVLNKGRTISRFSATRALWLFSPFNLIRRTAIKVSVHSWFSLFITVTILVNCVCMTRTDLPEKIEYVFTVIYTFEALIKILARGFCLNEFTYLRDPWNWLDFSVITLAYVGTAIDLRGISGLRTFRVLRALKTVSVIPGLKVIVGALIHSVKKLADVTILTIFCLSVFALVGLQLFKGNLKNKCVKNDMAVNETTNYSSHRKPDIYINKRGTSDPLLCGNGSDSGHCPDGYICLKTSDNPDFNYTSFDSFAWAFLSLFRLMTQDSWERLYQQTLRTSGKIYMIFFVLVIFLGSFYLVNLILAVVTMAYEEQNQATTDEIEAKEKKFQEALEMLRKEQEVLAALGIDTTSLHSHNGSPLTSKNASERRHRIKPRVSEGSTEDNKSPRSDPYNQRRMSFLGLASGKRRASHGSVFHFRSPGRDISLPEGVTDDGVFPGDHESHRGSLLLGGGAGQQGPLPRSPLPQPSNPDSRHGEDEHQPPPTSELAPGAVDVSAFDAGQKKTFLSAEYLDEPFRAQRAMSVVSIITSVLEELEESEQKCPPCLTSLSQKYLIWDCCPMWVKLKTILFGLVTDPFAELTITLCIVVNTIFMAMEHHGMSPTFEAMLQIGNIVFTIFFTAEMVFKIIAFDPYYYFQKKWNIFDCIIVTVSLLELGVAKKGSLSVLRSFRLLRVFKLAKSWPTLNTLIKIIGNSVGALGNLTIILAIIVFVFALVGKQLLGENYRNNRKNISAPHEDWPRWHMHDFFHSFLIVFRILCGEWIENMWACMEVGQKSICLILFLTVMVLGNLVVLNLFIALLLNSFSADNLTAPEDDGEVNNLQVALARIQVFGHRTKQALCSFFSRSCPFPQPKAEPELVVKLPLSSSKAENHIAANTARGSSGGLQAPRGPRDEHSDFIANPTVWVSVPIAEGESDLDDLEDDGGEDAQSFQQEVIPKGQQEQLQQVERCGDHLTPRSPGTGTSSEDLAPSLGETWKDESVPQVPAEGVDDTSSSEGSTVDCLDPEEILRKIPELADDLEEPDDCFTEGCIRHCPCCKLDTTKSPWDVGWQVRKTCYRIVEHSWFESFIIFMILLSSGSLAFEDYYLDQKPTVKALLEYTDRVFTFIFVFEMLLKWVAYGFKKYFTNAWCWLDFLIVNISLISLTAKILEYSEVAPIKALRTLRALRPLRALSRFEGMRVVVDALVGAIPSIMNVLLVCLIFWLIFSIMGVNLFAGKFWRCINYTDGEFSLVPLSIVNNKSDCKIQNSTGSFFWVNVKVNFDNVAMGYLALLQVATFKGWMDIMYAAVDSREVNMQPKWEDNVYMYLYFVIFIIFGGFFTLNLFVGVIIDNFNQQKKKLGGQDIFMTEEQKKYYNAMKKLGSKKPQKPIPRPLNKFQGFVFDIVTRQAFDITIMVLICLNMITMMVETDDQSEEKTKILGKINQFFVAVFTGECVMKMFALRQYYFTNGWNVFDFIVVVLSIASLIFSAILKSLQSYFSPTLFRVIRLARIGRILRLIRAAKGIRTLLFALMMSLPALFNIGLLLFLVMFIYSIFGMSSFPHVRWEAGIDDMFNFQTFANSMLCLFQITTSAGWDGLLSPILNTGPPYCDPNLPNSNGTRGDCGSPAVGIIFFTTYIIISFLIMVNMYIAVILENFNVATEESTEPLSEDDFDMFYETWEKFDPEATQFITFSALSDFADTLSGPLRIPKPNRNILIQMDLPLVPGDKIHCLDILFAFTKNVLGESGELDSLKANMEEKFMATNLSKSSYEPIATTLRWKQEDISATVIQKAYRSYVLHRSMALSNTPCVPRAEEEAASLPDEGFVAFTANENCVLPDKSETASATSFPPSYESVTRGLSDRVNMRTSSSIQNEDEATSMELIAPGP

| SMILES | IC50 [1] [nM] | IC50 [2] [nM] |
| --- | --- | --- |
| Cc1c(C(F)(F)F)nnc(Oc2ccc(C#N)cc2)c1C(=O)Nc1cccc(S(C)(=N)=O)c1 (stereo not drawn) [Compound 21] | 40 to 200 | 20 to 40 |
| Cc1c(C(F)(F)F)nnc(Oc2ccc(Cl)cc2)c1C(=O)Nc1cccc(S(C)(=N)=O)c1 (stereo not drawn) [Compound 22] | 40 to 200 | 20 to 40 |
| COc1c(Oc2nnc(C(F)(F)F)c(C)c2C(=O)Nc2cccc(S(C)(=N)=O)c2)ccc(F)c1F (stereo not drawn) [Compound 23] | 20 to 40 | ≤ 20 |
| Cc1cccc(Cl)c1Oc1nnc(C(F)(F)F)c(C)c1C(=O)Nc1ccc(C(N)=O)cc1 [Compound 1401] | 200 to 500 | 200 to 500 |
| Cc1cc(Br)ccc1Oc1nnc(C(F)(F)F)c(C)c1C(=O)Nc1ccc(C(N)=O)cc1 [Compound 1402] | 20 to 40 | 20 to 40 |
| COc1cc(Cl)ccc1Oc1nnc(C(F)(F)F)c(C)c1C(=O)Nc1ccc(C(N)=O)cc1 [Compound 1403] | 20 to 40 | 20 to 40 |
| Cc1c(C(F)(F)F)nnc(Oc2ccc(Cl)cc2F)c1C(=O)Nc1ccc(C(N)=O)cc1 [Compound 1404] | 40 to 200 | 40 to 200 |
| Cc1cc(F)ccc1Oc1nnc(C(F)(F)F)c(C)c1C(=O)Nc1cccc(C(N)=O)c1 [Compound 1406] | 40 to 200 | 40 to 200 |
| Cc1cc(F)ccc1Oc1nnc(C(F)(F)F)c(C)c1C(=O)Nc1cc(C(N)=O)cc(S(C)(=O)=O)c1 [Compound 1407] | 200 to 500 | 200 to 500 |
| Cc1cc(F)ccc1Oc1nnc(C(F)(F)F)c(C)c1C(=O)Nc1ccnc(C(N)=O)c1 [Compound 1408] | 40 to 200 | 40 to 200 |
| Cc1cc(F)ccc1Oc1nnc(C(F)(F)F)c(C)c1C(=O)Nc1ccc(C(N)=O)cc1 [Compound 1416] | 40 to 200 | 40 to 200 |
| COc1c(Oc2nnc3c(c2C(=O)Nc2cccc(C(N)=O)c2)CCC3)ccc(F)c1F [Compound 1417] | 200 to 500 | 200 to 500 |
| Cc1ccc(Oc2nnc(C(F)(F)F)c(C)c2C(=O)Nc2cccc(S(C)(=O)=O)c2)c(C)n1 [Compound 1420] | 200 to 500 | 200 to 500 |
| Cc1c(C(F)(F)F)nnc(Oc2c(F)cc(OC(F)(F)F)cc2F)c1C(=O)Nc1cccc(S(C)(=O)=O)c1 [Compound 1423] | 200 to 500 | 200 to 500 |
| COc1ccc(Oc2nnc(C(F)(F)F)c(C)c2C(=O)Nc2cccc(S(C)(=O)=O)c2)c(C)n1 [Compound 1428] | 40 to 200 | 40 to 200 |
| CCOC(=O)c1cc(NC(=O)c2c(Oc3ccc(F)cc3C)nnc(C(F)(F)F)c2C)cc(S(C)(=O)=O)c1 [Compound 1429] | 200 to 500 | 200 to 500 |
| Cc1cc(F)ccc1Oc1nnc(N2CC(F)C2)c(C)c1C(=O)Nc1cccc(S(C)(=N)=O)c1 (stereo not drawn) [Compound 1431, 6-(3-Fluoroazetidin-1-yl)-3-(4-fluoro-2-methyl-phenoxy)-5-methyl-N-[3-(methylsulfonimidoyl)phenyl]pyridazine-4-carboxamide] | 200 to 500 | 200 to 500 |
| Cc1cc(F)ccc1Oc1nnc(C#N)c(C)c1C(=O)Nc1cccc(S(C)(=N)=O)c1 (stereo not drawn) [Compound 1432, 6-cyano-3-(4-fluoro-2-methyl-phenoxy)-5-methyl-N-[3-(methylsulfonimidoyl)phenyl]pyridazine-4-carboxamide] | 200 to 500 | 200 to 500 |
| Cc1cc(F)ccc1Oc1nnc(C2CC2)c(C)c1C(=O)Nc1cccc(S(C)(=N)=O)c1 (stereo not drawn) [Compound 1433, 6-cyclopropyl-3-(4-fluoro-2-methyl-phenoxy)-5-methyl-N-[3-(methylsulfonimidoyl)phenyl]pyridazine-4-carboxamide] | 40 to 200 | 40 to 200 |
| CC#Cc1nnc(Oc2ccc(F)cc2C)c(C(=O)Nc2cccc(S(C)(=N)=O)c2)c1C (stereo not drawn) [Compound 1434, 3-(4-Fluoro-2-methylphenoxy)-5-methyl-N-(3-(S-methylsulfonimidoyl)phenyl)-6-(prop-1-yn-1-yl)pyridazine-4-carboxamide] | 200 to 500 | 200 to 500 |
| COc1c(Oc2nnc(C)c(C)c2C(=O)Nc2cccc(S(C)(=N)=O)c2)ccc(F)c1F (stereo not drawn) [Compound 1435, 3-(3,4-difluoro-2-methoxyphenoxy)-5,6-dimethyl-N-(3-(S-methylsulfonimidoyl)phenyl)pyridazine-4-carboxamide] | 200 to 500 | 200 to 500 |
| COc1cc(C#N)ccc1Oc1nnc(-c2ccccc2)c(C)c1C(=O)Nc1cccc(S(C)(=N)=O)c1 (stereo not drawn) [Compound 1436, 3-(4-cyano-2-methoxyphenoxy)-5-methyl-N-(3-(S-methylsulfonimidoyl)phenyl)-6-phenylpyridazine-4-carboxamide] | 40 to 200 | 20 to 40 |
| COc1cc(C#N)ccc1Oc1nnc(C(F)(F)F)c(C)c1C(=O)Nc1cccc(C(=O)N2CC(O)C2)c1 [Compound 1437, 3-(4-cyano-2-methoxy-phenoxy)-N-[3-(3-hydroxyazetidine-1-carbonyl)phenyl]-5-methyl-6-(trifluoromethyl)pyridazine-4-carboxamide] | 40 to 200 | 40 to 200 |

Other lines, results leading:

| IC50 [1] [nM] | IC50 [2] [nM] | SMILES |
| --- | --- | --- |
| ≤ 20 | ≤ 20 | COc1cc(C#N)ccc1Oc1nnc(C(F)(F)F)c(C)c1C(=O)Nc1cccc(S(C)(=N)=O)c1 (stereo not drawn) [Compound 25] |
| ≤ 20 | ≤ 20 | COc1cc(C#N)ccc1Oc1nnc(C(F)(F)F)c(C)c1C(=O)Nc1ccc(C(N)=O)cc1 [Compound 1405] |
| ≤ 20 | ≤ 20 | Cc1c(C(F)(F)F)nnc(Oc2ccc(OC(C)C)c(F)c2F)c1C(=O)Nc1cccc(C(N)=O)c1 [Compound 1409] |
| ≤ 20 | ≤ 20 | Cc1c(C(F)(F)F)nnc(Oc2ccc(OC(C)C)c(F)c2F)c1C(=O)Nc1ccnnc1 [Compound 1412] |
| ≤ 20 | ≤ 20 | COc1cc(F)ccc1Oc1nnc(C(F)(F)F)c(C)c1C(=O)Nc1ccc(C(N)=O)cc1 [Compound 1415] |
| ≤ 20 | ≤ 20 | COc1cc(C#N)ccc1Oc1nnc(C(F)(F)F)c(C)c1C(=O)Nc1cccc(S(N)(=O)=O)c1 [Compound 1418] |
| ≤ 20 | ≤ 20 | Cc1c(C(F)(F)F)nnc(Oc2ccc(OC(F)(F)F)c(F)c2F)c1C(=O)Nc1cccc(S(C)(=O)=O)c1 [Compound 1419] |
| ≤ 20 | ≤ 20 | Cc1c(Oc2nnc(C(F)(F)F)c(C)c2C(=O)Nc2cccc(S(C)(=O)=O)c2)ccc(Cl)c1F [Compound 1421] |
| ≤ 20 | ≤ 20 | Cc1c(C(F)(F)F)nnc(Oc2ccc(OC(F)F)c(F)c2F)c1C(=O)Nc1cccc(S(C)(=O)=O)c1 [Compound 1422] |
| ≤ 20 | ≤ 20 | Cc1c(C(F)(F)F)nnc(Oc2ccc(OC(C)C)c(F)c2F)c1C(=O)Nc1cccc(S(C)(=O)=O)c1 [Compound 1424] |
| ≤ 20 | ≤ 20 | COc1c(Oc2nnc(C(F)(F)F)c(C)c2C(=O)Nc2cccc(S(C)(=O)=O)c2)ccc(F)c1F [Compound 1425] |
| ≤ 20 | ≤ 20 | Cc1c(C(F)(F)F)nnc(Oc2ccc(OC3CCC3)c(F)c2F)c1C(=O)Nc1cccc(S(C)(=O)=O)c1 [Compound 1426] |
| ≤ 20 | ≤ 20 | COc1ccc(Oc2nnc(C(F)(F)F)c(C)c2C(=O)Nc2cccc(S(C)(=O)=O)c2)c(C)c1F [Compound 1427] |
